In ChEMBL document CHEMBL6177965, “Sealgamide: An Antitrypanosomal Lipopeptide Isolated from a Marine Okeania sp. Cyanobacterium” (J Nat Prod, 2025):

Key:
HeLa = assay: Cytotoxicity against human HeLa cells assessed as inhibition of cell growth incubated for 72 hrs by MTT assay; assay type: functional, cell-based
[1] = tested on: Trypanosoma brucei rhodesiense; assay: Antitrypanosomal activity against Trypanosoma brucei rhodesiense IL-1501 incubated for 69 hrs by Alamar blue staining based analysis; assay type: functional, organism-based; settings: IL-1501, 69 h
Plasmodium falciparum = assay: Antimalarial activity against Plasmodium falciparum 3D7 infected in RBC incubated for 72 hrs by LDH assay; assay type: functional, organism-based; settings: 3D7, Erythrocyte

Row | IC50 [1] [nM] | IC50 (Plasmodium falciparum) [nM] | Compound | IC50 (HeLa) [nM]
1 | 2900 | > 25000 | CCC[C@@H](C[C@@H](CC(=O)N(C)[C@@H](C(=O)N[C@H](C)C(=O)N[C@H](CC(C)C)C(=O)N(C)[C@@H](CC(C)C)C(=O)N[C@H](C(=O)N(C)[C@H](C(=O)N(C)[C@@H](CCC(N)=O)C(=O)N[C@@H](Cc1ccccc1)C(=O)N(C)[C@@H](CCC(N)=O)C(=O)N(C)[C@@H](Cc1ccc(OC)cc1)C(=O)O)C(C)C)[C@@H](C)O)[C@@H](C)CC)OC)OC | > 30000
2 | 650 | 2100 | CCC[C@@H](C[C@@H](CC(=O)N(C)[C@@H](C(=O)N(C)[C@H](C)C(=O)N[C@H](CC(C)C)C(=O)N(C)[C@@H](CC(C)C)C(=O)N[C@H](C(=O)N(C)[C@H](C(=O)N(C)[C@@H](CCC(N)=O)C(=O)N[C@@H](Cc1ccccc1)C(=O)N(C)[C@@H](CCC(N)=O)C(=O)N(C)[C@@H](Cc1ccc(OC)cc1)C(=O)OC)C(C)C)[C@@H](C)O)[C@@H](C)CC)OC)OC | > 30000
3 | 9 |  | N=C(N)c1ccc(OCCCCCOc2ccc(C(=N)N)cc2)cc1 [PENTAMIDINE] | 
